system: HCV 1b genotype; experiment: HCV Replicon assay (HCV 1b genotype); format: cell-based; details: Hepatitis C virus; HCV 1b genotype replicon; read-out: EC50
Method: An HCV Replicon assay was utilized in the present disclosure, and was prepared, conducted and validated as described in commonly owned PCT/US2006/022197 and in O'Boyle et al., Antimicrob. Agents Chemother., 49(4):1346-1353 (April 2005). Assay methods incorporating luciferase reporters have also been used as described (Apath.com).
HCV-neo replicon cells and replicon cells containing resistance substitutions in the NS5A region were used to test the currently described family of compounds. The compounds were determined to have differing degrees of reduced inhibitory activity on cells containing mutations vs. the corresponding inhibitory potency against wild-type cells. Thus, the compounds of the present disclosure can be effective in inhibiting the function of the HCV NS5A protein and are understood to be as effective in combinations as previously described in application PCT/US2006/022197 and commonly owned WO 04/014852. It should be understood that the compounds of the present disclosure can inhibit multiple genotypes of HCV. […] In one embodiment, compounds of the present disclosure are inhibitory versus 1a, 1b, 2a, 2b, 3a, 4a, and 5a genotypes.

Compound	EC50
COC(=O)N[C@H](C(=O)N1CCC[C@H]1c1nc2ccc(-c3ccc4cc(-c5ccc6nc([C@@H]7CCCN7C(=O)[C@@H](NC(=O)OC)C(C)C)[nH]c6c5)ccc4c3)cc2[nH]1)C(C)C [Example 2, Methyl((1S)-1-(((2S)-2-(5-(6-(2-((2S)-1-((2S)-2-((methoxycarbonyl)amino)-3-methylbutanoyl)-2-pyrrolidinyl)-1H-benzimidazol-5-yl)-2-naphthyl)-1H-benzimidazol-2-yl)-1-pyrrolidinyl)carbonyl)-2-methylpropyl)carbamate]	0.00218 nM
COC(=O)N[C@H](C(=O)N1CCC[C@H]1c1nc2ccc(-c3ccc4cc(-c5ccc6nc([C@@H]7CCCN7C(=O)[C@@H](NC(=O)OC)C7CC7)[nH]c6c5)ccc4c3)cc2[nH]1)C1CC1 [Example 11, Dimethyl(2,6-naphthalenediylbis(1H-benzimidazole-5,2-diyl(2S)-2,1-pyrrolidinediyl((1S)-1-cyclopropyl-2-oxo-2,1-ethanediyl)))biscarbamate]	0.0182 nM
COC(=O)N[C@H](C(=O)N1CCC[C@@H]1c1nc2ncc(-c3ccc4cc(-c5cnc6nc([C@@H]7CCCN7C(=O)[C@@H](NC(=O)OC)C(C)C)[nH]c6c5)ccc4c3)cc2[nH]1)C(C)C [Example 23, Methyl((1S)-1-(((2R)-2-(6-(6-(2-((2S)-1-((2S)-2-((methoxycarbonyl)amino)-3-methylbutanoyl)-2-pyrrolidinyl)-1H-imidazo[4,5-b]pyridin-6-yl)-2-naphthyl)-1H-imidazo[4,5-b]pyridin-2-yl)-1-pyrrolidinyl)carbonyl)-2-methylpropyl)carbamate]	0.888 nM

same assay, conditions: Hepatitis C virus; HCV 1b genotype replicon; read-out: Range (EC50 values against HCV 1b)

Compound	EC50
COC(=O)N[C@H](C(=O)N1C(c2ncc(-c3ccc4cc(-c5cccc(-c6c[nH]c([C@@H]7C[C@H]8C[C@H]8N7C(=O)[C@@H](NC(=O)OC)C(C)C)n6)c5)ccc4c3)[nH]2)CC2CC21)C(C)C (stereo in doubt) [Example 51, Methyl((1S)-1-(((1S,3R,5S)-3-(4-(6-(3-(2-((1R,3S,5R)-2-((2S)-2-((methoxycarbonyl)amino)-3-methylbutanoyl)-2-azabicyclo[3.1.0]hex-3-yl)-1H-imidazol-4-yl)phenyl)-2-naphthyl)-1H-imidazol-2-yl)-2-azabicyclo[3.1.0]hex-2-yl)carbonyl)-2-methylpropyl)carbamate]	0.0101 to 1 nM
COC(=O)N[C@H](C(=O)N1CCC[C@H]1c1nc2cc(-c3ccc4ccc(-c5ccc6nc([C@@H]7CCCN7C(=O)[C@@H](NC(=O)OC)C(C)C)[nH]c6c5)cc4c3)ccc2[nH]1)C(C)C [Example 1, Methyl((1S)-1-(((2S)-2-(5-(7-(2-((2S)-1-((2S)-2-((methoxycarbonyl)amino)-3-methylbutanoyl)-2-pyrrolidinyl)-1H-benzimidazol-5-yl)-2-naphthyl)-1H-benzimidazol-2-yl)-1-pyrrolidinyl)carbonyl)-2-methylpropyl)carbamate]	1.01 to 1000 nM
COC(=O)N[C@H](C(=O)N1CCC[C@H]1c1ncc(-c2ccc(-c3ccc4cc(-c5ccc6nc([C@@H]7CCCN7C(=O)[C@@H](NC(=O)OC)C(C)C)[nH]c6c5)ccc4c3)cc2)[nH]1)C(C)C [Example 3, Methyl((1S)-1-(((2S)-2-(4-(4-(6-(2-(1-((2S)-2-((methoxycarbonyl)amino)-3-methylbutanoyl)-2-pyrrolidinyl)-1H-benzimidazol-5-yl)-2-naphthyl)phenyl)-1H-imidazol-2-yl)-1-pyrrolidinyl)carbonyl)-2-methylpropyl)carbamate]	0.0101 to 1 nM
COC(=O)N[C@H](C(=O)N1CCC[C@H]1c1ncc(-c2ccc(-c3ccc4ccc(-c5ccc6nc([C@@H]7CCCN7C(=O)[C@@H](NC(=O)OC)C(C)C)[nH]c6c5)cc4c3)cc2)[nH]1)C(C)C [Example 4, Methyl((1S)-1-(((2S)-2-(4-(4-(7-(2-((2S)-1-((2S)-2-((methoxycarbonyl)amino)-3-methylbutanoyl)-2-pyrrolidinyl)-1H-benzimidazol-5-yl)-2-naphthyl)phenyl)-1H-imidazol-2-yl)-1-pyrrolidinyl)carbonyl)-2-methylpropyl)carbamate]	1.01 to 1000 nM
COC(=O)N[C@@H](C)C(=O)N1CCC[C@H]1c1nc2ccc(-c3ccc4cc(-c5ccc6nc([C@@H]7CCCN7C(=O)[C@H](C)NC(=O)OC)[nH]c6c5)ccc4c3)cc2[nH]1 [Example 5, Methyl((1S)-2-((2S)-2-(5-(6-(2-((2S)-1-(N-(methoxycarbonyl)-L-alanyl)-2-pyrrolidinyl)-1H-benzimidazol-5-yl)-2-naphthyl)-1H-benzimidazol-2-yl)-1-pyrrolidinyl)-1-methyl-2-oxoethyl)carbamate]	0.0101 to 1 nM
O=C([C@@H](c1ccccc1)N1CCCCC1)N1CCC[C@H]1c1nc2ccc(-c3ccc4cc(-c5ccc6nc([C@@H]7CCCN7C(=O)[C@@H](c7ccccc7)N7CCCCC7)[nH]c6c5)ccc4c3)cc2[nH]1 [Example 7, 5,5′-(2,6-Naphthalenediyl)bis(2-((2S)-1-((2R)-2-phenyl-2-(1-piperidinyl)acetyl)-2-pyrrolidinyl)-1H-benzimidazole)]	0.0101 to 1 nM
CN(C)[C@@H](C(=O)N1CCC[C@H]1c1nc2ccc(-c3ccc4cc(-c5ccc6nc([C@@H]7CCCN7C(=O)[C@@H](c7ccccc7)N(C)C)[nH]c6c5)ccc4c3)cc2[nH]1)c1ccccc1 [Example 8, (1R)-2-((2S)-2-(5-(6-(2-((2S)-1-((2R)-2-(Dimethylamino)-2-phenylacetyl)-2-pyrrolidinyl)-1H-benzimidazol-6-yl)-2-naphthyl)-1H-benzimidazol-2-yl)-1-pyrrolidinyl)-N,N-dimethyl-2-oxo-1-phenylethanamine]	0.0101 to 1 nM
COC(=O)N[C@H](C(=O)N1CCC[C@H]1c1nc2ccc(-c3ccc4cc(-c5ccc6nc([C@@H]7CCCN7C(=O)[C@@H](NC(=O)OC)C7CC7)[nH]c6c5)ccc4c3)cc2[nH]1)C1CC1 [Example 11, Dimethyl(2,6-naphthalenediylbis(1H-benzimidazole-5,2-diyl(2S)-2,1-pyrrolidinediyl((1S)-1-cyclopropyl-2-oxo-2,1-ethanediyl)))biscarbamate]	0.0101 to 1 nM
COC(=O)N[C@@H](C(=O)N1CCC[C@H]1c1nc2cc(-c3ccc4ccc(-c5ccc6nc([C@@H]7CCCN7C(=O)[C@H](NC(=O)OC)c7ccccc7)[nH]c6c5)cc4c3)ccc2[nH]1)c1ccccc1 [Example 12, Dimethyl(2,7-naphthalenediylbis(1H-benzimidazole-5,2-diyl(2S)-2,1-pyrrolidinediyl((1R)-2-oxo-1-phenyl-2,1-ethanediyl)))biscarbamate]	1.01 to 1000 nM
COC(=O)N[C@@H](C)C(=O)N1CCC[C@H]1c1nc2cc(-c3ccc4ccc(-c5ccc6nc([C@@H]7CCCN7C(=O)[C@H](C)NC(=O)OC)[nH]c6c5)cc4c3)ccc2[nH]1 [Example 13, Methyl((1S)-2-((2S)-2-(5-(7-(2-((2S)-1-(N-(methoxycarbonyl)-L-alanyl)-2-pyrrolidinyl)-1H-benzimidazol-5-yl)-2-naphthyl)-1H-benzimidazol-2-yl)-1-pyrrolidinyl)-1-methyl-2-oxoethyl)carbamate]	1.01 to 1000 nM
COC(=O)N[C@@H](C(=O)N1CCC[C@H]1c1nc2cc(-c3ccc4ccc(-c5ccc6nc([C@@H]7CCCN7C(=O)[C@H](NC(=O)OC)C(C)C)[nH]c6c5)cc4c3)ccc2[nH]1)C(C)C [Example 14, Methyl((1R)-1-(((2S)-2-(5-(7-(2-((2S)-1-((2R)-2-((methoxycarbonyl)amino)-3-methylbutanoyl)-2-pyrrolidinyl)-1H-benzimidazol-5-yl)-2-naphthyl)-1H-benzimidazol-2-yl)-1-pyrrolidinyl)carbonyl)-2-methylpropyl)carbamate]	1.01 to 1000 nM
O=C([C@@H](c1ccccc1)N1CCCCC1)N1CCC[C@H]1c1nc2cc(-c3ccc4ccc(-c5ccc6nc([C@@H]7CCCN7C(=O)[C@@H](c7ccccc7)N7CCCCC7)[nH]c6c5)cc4c3)ccc2[nH]1 [Example 15, 5,5′-(2,7-Naphthalenediyl)bis(2-((2S)-1-((2R)-2-phenyl-2-(1-piperidinyl)acetyl)-2-pyrrolidinyl)-1H-benzimidazole)]	0.0101 to 1 nM
COC(=O)N[C@H](C(=O)N1CCC[C@H]1c1ncc(-c2ccc3ccc(-c4ccc5nc([C@@H]6CCCN6C(=O)[C@@H](NC(=O)OC)C(C)C)[nH]c5c4)cc3c2)[nH]1)C(C)C [Example 17, Methyl((1S)-1-(((2S)-2-(4-(7-(2-((2S)-1-((2S)-2-((methoxycarbonyl)amino)-3-methylbutanoyl)-2-pyrrolidinyl)-1H-benzimidazol-5-yl)-2-naphthyl)-1H-imidazol-2-yl)-1-pyrrolidinyl)carbonyl)-2-methylpropyl)carbamate]	1.01 to 1000 nM
CCN(CC)[C@@H](C(=O)N1[C@@H]2C[C@@H]2C[C@H]1c1nc2ccc(-c3ccc4cc(-c5ccc6nc([C@@H]7C[C@H]8C[C@H]8N7C(=O)[C@@H](c7ccccc7)N(CC)CC)[nH]c6c5)ccc4c3)cc2[nH]1)c1ccccc1 [Example 19, (1R)-2-((1R,3S,5R)-3-(5-(6-(2-((1R,3S,5R)-2-((2R)-2-(Diethylamino)-2-phenylacetyl)-2-azabicyclo[3.1.0]hex-3-yl)-1H-benzimidazol-6-yl)-2-naphthyl)-1H-benzimidazol-2-yl)-2-azabicyclo[3.1.0]hex-2-yl)-N,N-diethyl-2-oxo-1-phenylethanamine]	0.0101 to 1 nM
COC(=O)N[C@H](C(=O)N1CCC[C@H]1c1nc2ncc(-c3ccc4cc(-c5cnc6nc([C@@H]7CCCN7C(=O)[C@@H](NC(=O)OC)C(C)C)[nH]c6c5)ccc4c3)cc2[nH]1)C(C)C [Example 22, Methyl((1S)-1-(((2S)-2-(6-(6-(2-((2S)-1-((2S)-2-((methoxycarbonyl)amino)-3-methylbutanoyl)-2-pyrrolidinyl)-1H-imidazo[4,5-b]pyridin-6-yl)-2-naphthyl)-1H-imidazo[4,5-b]pyridin-2-yl)-1-pyrrolidinyl)carbonyl)-2-methylpropyl)carbamate]	0.0101 to 1 nM
COC(=O)N[C@H](C(=O)N1CCC[C@@H]1c1nc2ncc(-c3ccc4cc(-c5cnc6nc([C@@H]7CCCN7C(=O)[C@@H](NC(=O)OC)C(C)C)[nH]c6c5)ccc4c3)cc2[nH]1)C(C)C [Example 23, Methyl((1S)-1-(((2R)-2-(6-(6-(2-((2S)-1-((2S)-2-((methoxycarbonyl)amino)-3-methylbutanoyl)-2-pyrrolidinyl)-1H-imidazo[4,5-b]pyridin-6-yl)-2-naphthyl)-1H-imidazo[4,5-b]pyridin-2-yl)-1-pyrrolidinyl)carbonyl)-2-methylpropyl)carbamate]	0.0101 to 1 nM
